Experimental data: ChEMBL document CHEMBL1128866, “Isophthalic acid derivatives: amino acid surrogates for the inhibition of HIV-1 protease” (Bioorg Med Chem Lett, 1995)

How the values were obtained:
[1] = biological target: Human immunodeficiency virus type 1 protease (Human immunodeficiency virus 1, UniProt Q72874); test: Inhibitory activity against human immunodeficiency virus protease (HIVP) using protease inhibition assay
[2] = Peak oral plasma concentration was determined in rats by oral administration; format: ADME, organism-based; design: route oral; details: rat
[3] = test system: CCRF-CEM; test: Antiviral activity in HIV-infected CEM cells using whole cell assay; format: functional, cell-based; details: Homo sapiens

Row | Structure (SMILES) | IC50 [1] | Cmax [2] | IC50 [3]
1 | CC(C)(C)NC(=O)c1ccccc1C[C@@H](O)[C@H](Cc1ccccc1)NC(=O)c1cccc(C(=O)N2CCc3ccccc3C2)c1 | 50 nM | – | –
2 | Cc1ccc(C(=O)N[C@@H](Cc2ccccc2)[C@H](O)Cc2ccccc2C(=O)NC(C)(C)C)cc1C(=O)N1CCc2ccccc2C1 | 670 nM | – | –
3 | Cc1ccc(C(=O)N(C)Cc2ccccn2)cc1C(=O)N[C@@H](Cc1ccccc1)[C@H](O)CN1C[C@H]2CCCC[C@H]2C[C@H]1C(=O)NC(C)(C)C | 8.6 nM | 4400 nM | 77 nM
4 | Cc1ccc(C(=O)N2CCc3ccccc3C2)cc1C(=O)N[C@@H](Cc1ccccc1)[C@H](O)Cc1ccccc1C(=O)NC(C)(C)C | 6.1 nM | – | –
5 | Cc1ccc(C(=O)N2CCc3ccccc3C2)cc1C(=O)N[C@@H](Cc1ccccc1)[C@H](O)CN1C[C@H]2CCCC[C@H]2C[C@H]1C(=O)NC(C)(C)C | 13.8 nM | < 100 nM | 1400 nM
6 | Cc1cc(C(=O)N[C@@H](Cc2ccccc2)[C@H](O)Cc2ccccc2C(=O)NC(C)(C)C)cc(C(=O)N2CCc3ccccc3C2)c1 | 500 nM | – | –
7 | CC(C)(C)NC(=O)[C@@H]1C[C@@H]2CCCC[C@@H]2CN1C[C@@H](O)[C@H](Cc1ccccc1)NC(=O)[C@H](CC(N)=O)NC(=O)c1ccc2ccccc2n1 | – | – | 2 nM
8 | CC(C)(C)NC(=O)c1ccccc1C[C@@H](O)[C@H](Cc1ccccc1)NC(=O)[C@H](CC(N)=O)NC(=O)c1ccc2ccccc2n1 | – | < 100 nM | 27 nM
